Results on 9 molecules are retold here after PMC9739695, “Water-Soluble Salts Based on Benzofuroxan Derivatives—Synthesis and Biological Activity” (International Journal of Molecular Sciences, 2022).

One series relates to wheat seeds. Put plainly: Pre-sowing seed treatment, sowing qualities of wheat seeds. The class given is in vivo. The following applies: for germination energy: control 82; for laboratory germination: control 85.7. The procedure:
(§1) When evaluating the effectiveness of treatment of wheat, alfalfa, barley, rice, and sorghum seeds as fungicidal and bactericidal agents with preparation compounds at concentrations of 10, 20, and 40 mmol, their effect on the suppression of seed infection was evaluated.
(§2) […] The sowing qualities were evaluated (germination energy for 3–4 days, laboratory germination for 7–8 days) according to GOST 12038-84 [60]. Sowing qualities of seeds were determined in wet chambers. According to the sample, 50 seeds were taken in 4-fold repetition.

Another series deals with alfalfa seeds. Nature of the series: Pre-sowing seed treatment, sowing qualities of alfalfa seeds. The class given is in vivo. The settings on record: for germination energy / laboratory germination: control 76. How it is done:
as §1, §2

The subject of series [1] is fungal microflora (mushrooms) on alfalfa seeds. Put plainly: Growth of fungal microflora on treated alfalfa seeds. The series is classed as cell-based. The procedure: During phytopathological analyses of agricultural crops, the species composition of fungal and bacterial microflora was established. Laboratory studies were carried out on two nutrient media potato-agar (ingredients: potatoes—200 g; agar-agar—20 g; distilled water—1000 mL.) and potato-dextrose agar (ingredients: potatoes—200 g;dextrose—20 g; agar-agar—20 g; distilled water—1000 mL), according to the guidelines.
When evaluating the effectiveness of treatment of wheat, alfalfa, barley, rice, and sorghum seeds as […], their effect on the suppression of seed infection was evaluated.

In the next series the test system is barley seeds. Put plainly: Pre-sowing seed treatment, sowing qualities of barley seeds. The series is classed as in vivo. The following applies: for germination energy / laboratory germination: control 95.2. How it is done:
as §1, §2

The next series relates to rice seeds. Put plainly: Pre-sowing seed treatment, sowing qualities of rice seeds. The class given is in vivo. The following applies: for germination energy: control 71.4; for laboratory germination: control 95.2. The procedure: as §1, §2
Another series has as its system sorghum seeds. Nature of the series: Pre-sowing seed treatment, sowing qualities of sorghum seeds. The class given is in vivo. The settings on record: for germination energy: control 52.3; for laboratory germination: control 57. How it is done:
as §1, §2

A further series deals with SH-SY5Y (neuroblastoma). Nature of the series: Cell viability, MTT test. The class given is cell-based, Human. The following applies: Homo sapiens, SH-SY5Y, test range 0.1 to 100 μM, read-out: IC50 (concentration causing 50% inhibition of cell population growth). How it is done: (§3) In this work, the cytotoxic potential of the water-soluble salts based on benzofuroxan was determined by the effect of compounds on the survival of the cell tumor origin cultures (SH-SY5Y, Hep2, A549, HeLa) using the MTT test. To understand how the synthesized compounds can influence the healthy microenvironment in the body, the effect of substances on the viability of a normal Hek 293 cell culture was additionally evaluated.
(§4) Human cell cultures of tumor origin—SH-SY5Y (neuroblastoma), HeLa (cervical tumor), Hep-2 (larynx carcinoma), A549 (adenocarcinomic human alveolar basal epithelial cells)—and normal cell line Hek 293 (human embryonic kidneys), provided by the Laboratory of Tumor Cell Genetics of the Scientific Research Institute of Carcinogenesis, N.N. Blokhin National Medical Research Center of Oncology, as well as the Institute of Cytology of the Russian Academy of Sciences, were grown in a nutrient medium DMEM (PanEco, Moscow, Russia) and MEM (PanEco, Moscow, Russia), containing fetal bovine serum (10% by volume) (ThermoFisher Scientific, Paisley, UK), Glutamax (2 mM) (Gibco, Scotland, UK), and penicillin-streptomycin (1% by volume) (PanEco, Moscow, Russia). The cultivation was carried out at 37 °C in a humidified CO2 atmosphere (5%).
(§5) Cell viability was determined by MTT test. Cells were seeded in a 96-well plate in the amount of 1 × 10^4 cells/200µLof complete nutrient medium and cultured at 37 °C in CO2 (5%). After 24 h of incubation, various concentrations of test compounds in the range from 0.1 to 100 μM, were added to the cell cultures, and then the cells were cultured under the same conditions for 24 and 72 h. For each concentration, the experiment was carried out in triplicate.
(§6) All compounds were dissolved in DMSO, then diluted with the medium to the required concentration. […] The DMSO was also added to the control wells in a volume of 1%. After the incubation time, MTT (3-(4,5-dimethylthiazol-2-yl)-2,5-diphenyltetrazolium bromide, 5 mg/mL) was added to each well and plates were additionally incubated for 2 h (until the characteristic color appeared).
(§7) Using a plate analyzer (Cytation3, BioTech Instruments Inc., Winooski, VT, USA), the optical density was determined at 530 nm. The concentration value causing 50% inhibition of cell population growth (IC50) was determined from dose-dependent curves.
Background: Tetrazolium dyes change colour on reduction, which living cells bring about.

Series [2] has as its system A549 (adenocarcinomic human alveolar basal epithelial cells). Put plainly: Cell viability, MTT test. The series is classed as cell-based. The following applies: test range 0.1 to 100 μM, read-out: IC50 (concentration causing 50% inhibition of cell population growth). How it is done: as §3, §4, §5, §6, §7
The next series deals with HeLa (cervical tumor). Nature of the series: Cell viability, MTT test. The series is classed as cell-based. The settings on record: Homo sapiens, test range 0.1 to 100 μM, read-out: IC50 (concentration causing 50% inhibition of cell population growth). How it is done:
as §3, §4, §5, §6, §7

In the next series the test system is Hep-2 (larynx carcinoma). Nature of the series: Cell viability, MTT test. The settings on record: Homo sapiens, HEp-2, test range 0.1 to 100 μM, read-out: IC50 (concentration causing 50% inhibition of cell population growth). The class given is cell-based. How it is done:
as §3, §4, §5, §6, §7

For series [3], the system named is Hek 293 (human embryonic kidneys). Put plainly: Cell viability, MTT test, normal cell line. The settings on record: HEK293, Hek 293 normal cells, test range 0.1 to 100 μM, read-out: IC50 (concentration causing 50% inhibition of cell population growth). The class given is cell-based. The procedure:
as §3, §4, §5, §6, §7

Counter-ions that a name gives are not always drawn. Like-named read-outs stand apart in the source and are kept apart here. Where only a bound is given, the exact number is not on record here.

A word on the melting point: it is the temperature, or range, at which the solid turns liquid. `O=[N+]([O-])c1c(Cl)cc2c(no[n+]2[O-])c1NCCN1CCCCC1` [3f, 6-chloro-5-nitro-4-(2-(piperidin-1-yl)ethylamino)benzo[c][1,2,5]oxadiazole 1-oxide] registered a melting point of 88 to 89 °C.
As to `CN(C)Cc1ccccc1Nc1c([N+](=O)[O-])c(Cl)cc2c1no[n+]2[O-].Cl` [4a, 6-chloro-4-(2-((dimethylammonio)methyl)phenylamino)-5-nitrobenzo[c][1,2,5]oxadiazole 1-oxide chloride], the melting point is 125 to 126 °C (dec.). Also, in the series on wheat seeds (10 mmol), the “sowing qualities of seeds compared with control” value is reported as “higher than in the case of controls”, the germination energy was found to be 97% and the laboratory germination amounted to 96.5%. For the same molecule, in the series with wheat seeds (50 mmol), the “sowing qualities of seeds compared with control” value is given as “higher than in the case of controls”, the germination energy amounted to 95% and the laboratory germination came to 96.5%. Also, in the series with alfalfa seeds (10 mmol), the “sowing qualities of seeds compared with control” value is “higher than controls”, the germination energy stood at 83% and the laboratory germination was 84.5%. Besides, in the series on alfalfa seeds (50 mmol), the “sowing qualities of seeds compared with control” value is recorded as “higher than controls”, the germination energy came to 78% and the laboratory germination came to 79.5%. Besides, in series [1] (10 mmol), the “effect on fungal microflora” value is given as “positive effect on the suppression of fungal microflora”. In addition, the “effect on fungal microflora” value in [1] (50 mmol) is on record as “positive effect on the suppression of fungal microflora”. Further, in the series on barley seeds (10 mmol), the “sowing qualities of seeds compared with control” value is “higher than control”, the germination energy is reported as 96% and the laboratory germination stood at 99%. In the series with barley seeds (50 mmol), the “sowing qualities of seeds compared with control” value is reported as “higher than control”, the germination energy is given as 95% and the laboratory germination stood at 97.5%. In addition, in the series on rice seeds (10 mmol), the “sowing qualities of seeds compared with control” value is on record as “better results than the control”, the germination energy was 96% and the laboratory germination is 96.5%. Moreover, in the series on rice seeds (50 mmol), the “sowing qualities of seeds compared with control” value was “better results than the control”, the germination energy was 99% and the laboratory germination is 99%. In addition, in the series on sorghum seeds (10 mmol), the germination energy was found to be 47.5% and the laboratory germination worked out at 49.5%. In the series with sorghum seeds (50 mmol), the “sowing qualities of seeds compared with control” value is given as “at the control level”, the germination energy was determined as 52.5% and the laboratory germination is reported as 56.5%. For the same molecule, in the series on SH-SY5Y (neuroblastoma) (incubation 24 h), the IC50 was determined as 44 ± 1.09 µM. In addition, the IC50 in the series on SH-SY5Y (neuroblastoma) (incubation 72 h) is 35.1 ± 3.85 µM. Also, the IC50 in series [2] (A549, incubation 24 h) is 95.5 ± 1.01 µM. The IC50 in [2] (A549, incubation 72 h) came to 92.1 ± 3.58 µM. The IC50 with HeLa (cervical tumor) (incubation 24 h) was 40.2 ± 2.73 µM. In addition, the IC50 with HeLa (cervical tumor) (incubation 72 h) was 32.9 ± 0.56 µM. The IC50 in the series on Hep-2 (larynx carcinoma) (Hep2, incubation 24 h) turned out to be 98.5 ± 2.54 µM. The IC50 in the series with Hep-2 (larynx carcinoma) (Hep2, incubation 72 h) was determined as 90.1 ± 3.1 µM. In addition, in [3] (incubation 24 h), the IC50 is 38.62 ± 0.1 µM. For the same molecule, the IC50 in [3] (incubation 72 h) is 16.1 ± 1.86 µM.
As for `CN(C)Cc1ccc(Nc2c([N+](=O)[O-])c(Cl)cc3c2no[n+]3[O-])cc1` [3c, 6-chloro-4-(4-((dimethylamino)methyl)phenylamino)-5-nitrobenzo[c][1,2,5]oxadiazole 1-oxide], the melting point is > 300 °C (dec.).
Regarding `CN(C)Cc1cccc(Nc2c([N+](=O)[O-])c(Cl)cc3c2no[n+]3[O-])c1` [4b, 6-chloro-4-(3-((dimethylammonio)methyl)phenylamino)-5-nitrobenzo[c][1,2,5]oxadiazole 1-oxide chloride], the IC50 in the series on SH-SY5Y (neuroblastoma) (incubation 24 h) amounted to 45.2 ± 2.43 µM; in the series on SH-SY5Y (neuroblastoma) (incubation 72 h) it was 32.1 ± 1.41 µM; in series [2] (A549, incubation 24 h) it was 99.2 ± 3.38 µM; in series [2] (A549, incubation 72 h), 90 ± 2.04 µM; in the series on HeLa (cervical tumor) (incubation 24 h), 46.1 ± 0.56 µM; in the series with HeLa (cervical tumor) (incubation 72 h), 38.1 ± 1.21 µM. Further, the IC50 in the series on Hep-2 (larynx carcinoma) (Hep2, incubation 24 h) is 97 ± 2.08 µM; in the series on Hep-2 (larynx carcinoma) (Hep2, incubation 72 h), 93.1 ± 2.3 µM; in series [3] (incubation 24 h), 35 ± 1.35 µM; in series [3] (incubation 72 h), 27.2 ± 2.5 µM.
For `CN(C)Cc1cccc(Nc2c([N+](=O)[O-])c(Cl)cc3c2no[n+]3[O-])c1` [3b, 6-chloro-4-(3-((dimethylamino)methyl)phenylamino)-5-nitrobenzo[c][1,2,5]oxadiazole 1-oxide], the melting point fell in the range of 118 to 119 °C.
The same measure, in the same setting: the value for `O=[N+]([O-])c1c(Cl)cc2c(no[n+]2[O-])c1NCCN1CCOCC1` (as salt: chloride) [4d, 6-chloro-4-(2-(morpholino-4-ium)ethylamino)-5-nitrobenzo[c][1,2,5]oxadiazole 1-oxide chloride] was 186 to 187 °C.
The molecule `O=[N+]([O-])c1c(Cl)cc2c(no[n+]2[O-])c1NCCN1CCOCC1` [3d, 6-chloro-4-(2-morpholinoethylamino)-5-nitrobenzo[c][1,2,5]oxadiazole 1-oxide] registered a melting point of 140 to 141 °C.
Turning to `CN(C)Cc1ccccc1Nc1c([N+](=O)[O-])c(Cl)cc2c1no[n+]2[O-]` [3a, 6-chloro-4-(2-((dimethylamino)methyl)phenylamino)-5-nitrobenzo[c][1,2,5]oxadiazole 1-oxide], the melting point is 152 to 153 °C (dec.).
In the case of `Cl.O=[N+]([O-])c1c(Cl)cc2c(no[n+]2[O-])c1NCCN1CCCCC1`, the melting point is 106 to 107 °C.
